The values below come from US6863897B2, “Stabilization of resorcinol derivatives in cosmetic compositions” (Unilever Home & Personal Care USA, division of Conopco, Inc., priority 2002, dated 2005).

This data set can be described thus: Storage color stability of resorcinol formulations with and without micronized TiO2 (chromameter CIE L*). Type of data set: physicochemical. On the set-up: key: difference in CIE L* (lightness) values, with TiO2 minus without. Particulars: 45° C. oven, glass amber jars, 0.2% micronized TiO2 (MT-100Z), resorcinol content 2.17 milli-M. As for the experimental part:
In this experiment, the storage stability in terms of color change of resorcinol derivatives time was measured with and without the presence of metal oxides.
The color stabilization of formulations of containing 4-substituted resorcinol derivatives by TiO2 was assessed by measuring the chromameter L* value (Luminance, or lightness) of the different formulations over time. A decrease in L* over time represents a darkening of the formulations as color develops from the white starting formulation due to decomposition of the resorcinol derivative. In Table 5 below, the ΔL value between formulations with and without TiO2 indicates the magnitude of color difference between the comparative samples. […] Thus, one can see that TiO2 has a large color-stabilizing effect, particularly on the formulations containing 4-substituted resorcinols.
The cosmetic compositions of Examples 5 to 8 in the Table above were stored and tested for stability in terms of discoloration. The resorcinol and 4-substituted resorcinol derivatives in these examples had equal molar content, i.e., 2.17 milli-M. A comparative composition, example 8, was made by eliminating resorcinol or its derivatives from the compositions of examples 5 to 8. The product formulations were stored for 56 days in glass amber jars of 120 ml volume in an oven at 45° C.
Procedure for Measuring CIE L*a*b* Color of Cosmetic Formulations
A film is created by applying a composition evenly to an UV-Transparent quartz plate (4″×4⅛″×⅛″) with a spatula. An 8-path wet film applicator from Paul Gardner Company, Inc. with a 3″ path width is used. The applicator is manually drawn across the plate for a […] thickness.
The plate is flipped over with the thin film facing the bench top and suspended 1½″ above a black benchtop (L*a*b* reading of the benchtop is L*=27.5, a*=0.5, b*=−0.6). Then a hand held Minolta CR10 chromameter is calibrated on a white Calibration Color tile (L 98.2, a 0.2, b 1.2). The chromameter is then placed on the top of the plate and three readings of the Commission Internationale de l'Eclairage (CIE) L*a*b* color system are taken. • L*=Black to white (luminance) from 0 to 100 [L*=0 represents Black] • a*=green to red from −60 to +60 • b*=blue to yellow from −60 to +60
The formulation thin film L* values were used in the present analysis. For each data collection the average value for the three readings was used at 0, 14, 28, and 56 days.

With `CCc1ccc(O)cc1O` [4-Ethyl resorcinol, 4-ethyl resorcinol], the “Base-adjusted ΔL with TiO2 - ΔL without TiO2 for the resorcinol formulations” value reads like this: (storage time 0 day) 0; (storage time 14 days) 12.0; (storage time 28 days) 4.6; (storage time 56 days) 7.6.
As for `CCCCCCc1ccc(O)cc1O` [4-Hexyl resorcinol, 4-hexyl resorcinol], the “Base-adjusted ΔL with TiO2 - ΔL without TiO2 for the resorcinol formulations” value (storage time 0 day) is on record as 0, the “Base-adjusted ΔL with TiO2 - ΔL without TiO2 for the resorcinol formulations” value (storage time 14 days) was 7.7, the “Base-adjusted ΔL with TiO2 - ΔL without TiO2 for the resorcinol formulations” value (storage time 28 days) is 0.1 and the “Base-adjusted ΔL with TiO2 - ΔL without TiO2 for the resorcinol formulations” value (storage time 56 days) came to 3.7.
In the case of `Oc1cccc(O)c1` [Resorcinol], the “Base-adjusted ΔL with TiO2 - ΔL without TiO2 for the resorcinol formulations” value is, setting by setting: (storage time 0 day) 0; (storage time 14 days) 0.9; (storage time 28 days) −2; (storage time 56 days) 1.1.
